The Deep4Chem optical property database
Values belong to the compound of their own block, whether it stands above or below them.

Experiment: solvent given as SMILES

SMILES: CN(C)CCCN1c2ccccc2Sc2ccc(Cl)cc21
absorption maximum (in CC#N): 312 nm | absorption maximum (in CO): 311 nm | absorption maximum (in O): 307 nm

SMILES: COC(=O)c1cc(=O)n(C)c2cc(-c3ccc(OC)cc3)sc12
absorption maximum (in C1CCOC1): 402 nm | absorption maximum (in CC#N): 396 nm | absorption maximum (in CN(C)C=O): 402 nm | absorption maximum (in CO): 396 nm | absorption maximum (in CS(C)=O): 404 nm | absorption maximum (in Cc1ccccc1): 402 nm

SMILES: COc1nc(Cl)nc(Nc2ccc3cc4ccccc4cc3c2)n1
absorption maximum (in C1COCCO1): 394 nm | absorption maximum (in CC#N): 397 nm | absorption maximum (in CCCCOCCCC): 396 nm | absorption maximum (in CCOC(C)=O): 398 nm

SMILES: CCn1c2ccccc2c2cc(-c3cc(-c4ccc5c(c4)c4ccccc4n5CC)ncn3)ccc21
absorption maximum (in C1CCOC1): 360 nm | absorption maximum (in CCOC(C)=O): 359 nm | absorption maximum (in CN(C)C=O): 363 nm | absorption maximum (in Cc1ccccc1): 360 nm | absorption maximum (in ClCCl): 360 nm

SMILES: CCOC(=O)/C=C/C1=C(c2ccc(C)cc2)C2=Nc3c(-c4ccc(C)cc4)cc(-c4ccc(C)cc4)n3[B-](F)(F)[N+]2=C1c1ccc(C)cc1
absorption maximum (in ClC(Cl)Cl): 663 nm

SMILES: O=C(Cc1ccccc1)OCc1ccc2c3cccc4cccc(c5cccc1c52)c43
absorption maximum (in CCO): 438 nm

SMILES: Clc1ccc(-c2nc3ccccc3n2-c2ccccc2)cc1
absorption maximum (in CC#N): 295 nm

SMILES: Cc1ccc2nc(/C=C/c3ccc(N(C)C)cc3)c(-c3ccccc3)nc2c1
absorption maximum (in C1COCCO1): 430 nm | absorption maximum (in CC#N): 433 nm | absorption maximum (in ClCCl): 436 nm

SMILES: Cc1cccc(C)c1Nc1ccc(/C=C/c2cccnc2)cc1
absorption maximum (in CC#N): 351 nm | absorption maximum (in CCCCCC): 346 nm

SMILES: Cc1cc(C)c(N(c2ccccc2)c2ccc(S(=O)(=O)c3ccc(S(=O)(=O)c4ccc(N(c5ccccc5)c5c(C)cc(C)cc5C)cc4)cc3)cc2)c(C)c1
absorption maximum (in Cc1ccccc1): 351 nm

SMILES: CC1=C(c2ccc(-c3nc(-c4ccccc4)c(-c4ccccc4)[nH]3)cc2)S[C@]2(C)C1=C1C(=C3c4ccccc4C(C)[C@]32C)C(F)(F)C(F)(F)C1(F)F (stereo not given in full)
absorption maximum (in C1CCOC1): 589 nm

SMILES: CCCCCCOc1cc(N(CC)CC)ccc1/C=C/C(=C(C#N)C#N)c1ccc2c(c1)c1ccccc1n2CC
absorption maximum (in ClCCl): 504 nm

SMILES: COc1cc(OC)cc(C2=C3C(C)=C(I)C(/C=C/c4c[nH]c5ccccc45)=[N+]3[B-](F)(F)n3c(/C=C/c4c[nH]c5ccccc45)c(I)c(C)c32)c1
absorption maximum (in C1CCOC1): 715 nm | absorption maximum (in CS(C)=O): 727 nm | absorption maximum (in ClCCl): 702 nm

SMILES: CCCC1=Cc2nc1ccc1[nH]c(cc1CCC)c1nc(c(O)cc3[nH]c2cc3CCC)C(CCC)=C1
absorption maximum (in Cc1ccccc1): 677 nm

SMILES: NS(=O)(=O)c1ccc(N2N=C(c3ccc(O)cc3)CC2c2ccc([N+](=O)[O-])cc2)cc1 (stereo not given)
absorption maximum (in C1CCOC1): 353 nm | absorption maximum (in C1COCCO1): 353 nm | absorption maximum (in CC#N): 352 nm | absorption maximum (in CC(C)O): 352 nm | absorption maximum (in CCO): 352 nm | absorption maximum (in CCOC(C)=O): 352 nm | absorption maximum (in CN(C)C=O): 355 nm | absorption maximum (in CO): 351 nm | absorption maximum (in CS(C)=O): 358 nm | absorption maximum (in O): 354 nm

SMILES: COc1ccc(C2C3=C(CCCC3=O)Nc3c2c(=O)oc2ccccc32)cc1 (stereo not given)
absorption maximum (in CS(C)=O): 361 nm

SMILES: COc1ccc2c(c1)C(=O)c1cc(OC)cc(OC)c1-2
absorption maximum (in C1CCCCC1): 478 nm | absorption maximum (in CC#N): 491 nm | absorption maximum (in CCO): 492 nm

SMILES: CC[n+]1nc2ccc(N(C)C)cc2c2cc(C)ccc21
absorption maximum (in O): 483 nm

SMILES: CC(C)(C)c1ccc(N(c2ccc(C(C)(C)C)cc2)c2ccc3c(N(c4ccc(C(C)(C)C)cc4)c4ccc(C(C)(C)C)cc4)cc4c5cc(N(c6ccc(C(C)(C)C)cc6)c6ccc(C(C)(C)C)cc6)ccc5c(N(c5ccc(C(C)(C)C)cc5)c5ccc(C(C)(C)C)cc5)cc4c3c2)cc1
absorption maximum (in ClCCl): 433 nm

SMILES: F[B-]1(F)Oc2ccccc2-c2n(-c3ccc(C(F)(F)F)cc3)c(-c3ccccc3)c(-c3ccccc3)[n+]21
absorption maximum (in C1CCOC1): 327 nm

SMILES: c1ccc(N(c2ccccc2)c2ccc(-c3cccc4nc5ccccc5cc34)cc2)cc1
absorption maximum (in C1CCOC1): 391 nm | absorption maximum (in CC#N): 390 nm | absorption maximum (in CC(C)OC(C)C): 389 nm | absorption maximum (in CCCCCC): 386 nm | absorption maximum (in CCCCOCCCC): 390 nm | absorption maximum (in CCN(CC)CC): 389 nm | absorption maximum (in CCOC(C)=O): 390 nm | absorption maximum (in CCOCC): 386 nm | absorption maximum (in CN(C)C=O): 390 nm | absorption maximum (in ClCCl): 396 nm

SMILES: Cc1cc(C)c(B(c2ccc3c(c2)c2cc(B(c4c(C)cc(C)cc4C)c4c(C)cc(C)cc4C)ccc2n3-c2ccc(C(=C(c3ccccc3)c3ccccc3)c3ccccc3)cc2)c2c(C)cc(C)cc2C)c(C)c1
absorption maximum (in C1CCOC1): 358 nm

SMILES: CCCCCCCCC1(CCCCCCCC)c2cc(C=O)ccc2-c2ccc(/C=C/c3ccc(N(c4ccccc4)c4ccccc4)cc3)cc21
absorption maximum (in C1CCOC1): 406 nm | absorption maximum (in C1COCCO1): 411 nm | absorption maximum (in CC#N): 406 nm | absorption maximum (in CC(C)=O): 409 nm | absorption maximum (in CCCCCC): 405 nm | absorption maximum (in CCOC(C)=O): 409 nm | absorption maximum (in CN(C)C=O): 410 nm | absorption maximum (in CS(C)=O): 408 nm | absorption maximum (in Cc1ccccc1): 411 nm | absorption maximum (in ClC(Cl)Cl): 409 nm | absorption maximum (in ClCCl): 411 nm

SMILES: CN(C)c1ccc2c3c(ccc2c1)C(=O)CCC3
absorption maximum (in C1CCCCC1): 347 nm | absorption maximum (in CC#N): 356 nm | absorption maximum (in CC(C)O): 368 nm | absorption maximum (in CCC(C)=O): 356 nm | absorption maximum (in CCO): 369 nm | absorption maximum (in CCOC(C)=O): 353 nm | absorption maximum (in CS(C)=O): 363 nm | absorption maximum (in Cc1ccccc1): 353 nm | absorption maximum (in ClCCl): 358 nm | absorption maximum (in Clc1ccccc1): 357 nm

SMILES: COc1ccc(O)c(-c2[nH]c(=O)n3c2-c2ccccc2C3=O)c1
absorption maximum (in CC#N): 395 nm | absorption maximum (in CO): 401 nm | absorption maximum (in ClCCl): 399 nm

SMILES: CCN(CC)c1ccc(C=Cc2nc3nc4ccccc4nc3s2)c(OC)c1
absorption maximum (in CO): 485 nm

SMILES: COc1ccc(-c2cc(-c3ccc(N(C)C)cc3)nc(-c3ccccc3)n2)cc1
absorption maximum (in ClC(Cl)Cl): 365 nm

SMILES: O=C1OC(c2ccccc2)=N/C1=C\c1ccc(N(c2ccc(/C=C3\N=C(c4ccccc4)OC3=O)cc2)c2ccc(/C=C3/N=C(c4ccccc4)OC3=O)cc2)cc1
absorption maximum (in C1CCCCC1): 497.5 nm | absorption maximum (in C1CCOC1): 500 nm | absorption maximum (in C1COCCO1): 502 nm | absorption maximum (in CC1CCCCC1): 498.5 nm | absorption maximum (in CC#N): 498 nm | absorption maximum (in CC(C)=O): 499 nm | absorption maximum (in CC(C)CC(C)(C)C): 492 nm | absorption maximum (in CCCCC): 489 nm | absorption maximum (in CCCCCC): 491 nm | absorption maximum (in CCCCCCC): 495 nm | absorption maximum (in CCCCOCCCC): 497.5 nm | absorption maximum (in CCOC(C)=O): 496 nm | absorption maximum (in CCOCC): 496.5 nm | absorption maximum (in CN(C)C=O): 504 nm | absorption maximum (in CS(C)=O): 506 nm | absorption maximum (in Cc1ccccc1): 505.5 nm | absorption maximum (in ClC(Cl)Cl): 509.5 nm

SMILES: CCc1c(C)c2n(c1C)[B-](F)(F)[N+]1=C(c3ccc[nH]3)c3ccccc3C1=C2
absorption maximum (in C1CCOC1): 613 nm | absorption maximum (in CC#N): 608 nm | absorption maximum (in CCCCCC): 614 nm | absorption maximum (in CO): 609 nm | absorption maximum (in Cc1ccccc1): 620 nm | absorption maximum (in ClCCl): 616 nm

SMILES: c1ccc2c(-c3cncnc3)c3ccccc3c(-c3cncnc3)c2c1
absorption maximum (in CCO): 394 nm | absorption maximum (in ClCCl): 397 nm

Results, then the compound that gave them:

absorption maximum (in CS(C)=O): 414 nm | absorption maximum (in ClC(Cl)Cl): 398 nm
SMILES: CCCCn1cc(/C=C/c2cc(=O)oc3cc(C)ccc23)c2ccccc21

absorption maximum (in C1CCOC1): 375 nm | absorption maximum (in C1COCCO1): 369 nm | absorption maximum (in CC#N): 379 nm | absorption maximum (in CCO): 379 nm | absorption maximum (in ClCCl): 381 nm
SMILES: CN(C)c1ccc(/C=C/c2ccc(-c3cc(-c4ccccn4)nc(-c4ccccn4)c3)cc2)cc1

absorption maximum (in CCO): 369 nm
SMILES: CCN(CC)c1cc(F)c(C(=O)c2cc(F)c(N(CC)CC)cc2F)cc1F

absorption maximum (in CC#N): 392 nm | absorption maximum (in CCO): 389 nm | absorption maximum (in O): 383 nm
SMILES: CC(=O)OC[C@@H]1O[C@H](n2cnc3c2N=CN2Cc4c[n+](C)c(C)nc4N=C32)[C@@H](O)[C@H]1O

absorption maximum (in ClCCl): 495 nm
SMILES: CC1=C(c2ccccc2)Oc2cc3nc4ccccc4nc3c3cccc1c23

absorption maximum (in ClC(Cl)Cl): 348 nm
SMILES: CC(C)(C)c1ccc2oc3nc4oc5ccc(N6c7ccccc7Sc7ccccc76)cc5c4cc3c2c1

absorption maximum (in ClCCl): 404 nm
SMILES: CCCCn1c2ccccc2c2ccc(C#Cc3ccc4ccc5cccc6ccc3c4c56)cc21

absorption maximum (in ClC(Cl)Cl): 509 nm
SMILES: N#CC(C#N)=Cc1ccc(-c2ccc(N(c3ccccc3)c3ccccc3)cc2)o1

absorption maximum (in ClCCl): 380 nm
SMILES: C[Si]1(C)O[Si](C)(C)c2cc3c(-c4ccccc4F)c4cc(Cl)ccc4nc3cc21

absorption maximum (in C1CCCCC1): 386 nm | absorption maximum (in CC#N): 409 nm | absorption maximum (in CCO): 429 nm | absorption maximum (in c1ccccc1): 395 nm
SMILES: Nc1ccc2c(c1)-c1ccccc1C2=O

absorption maximum (in CC#N): 693 nm
SMILES: CC1=[N+]2C(=C(C3=CC4OCCOCCOCCOCCOC4C=C3)c3c4ccccc4c(/C=C/c4ccc(N(C)C)cc4)n3[B-]2(F)F)c2ccccc21 (stereo not given)

absorption maximum (in C1CCOC1): 344 nm
SMILES: N#Cc1c(N2CCCCC2)cc(-c2ccc3ccc4cccc5ccc2c3c45)c2c1C(=O)c1ccccc1-2

absorption maximum (in CCO): 556 nm
SMILES: CN(C)c1ccc2c(-c3ccc(Br)cc3)c3ccc(=[N+](C)C)cc-3oc2c1

absorption maximum (in CCO): 438 nm
SMILES: Cc1ccc(C(=O)OCc2ccc3c4cccc5cccc(c6cccc2c63)c54)cc1

absorption maximum (in ClCCl): 398 nm
SMILES: F[B-]1(F)OC(/C=C/c2ccccc2)=CC(c2ccccc2)=[O+]1

absorption maximum (in ClCCl): 331 nm
SMILES: CCOC(=O)c1c(-c2c(Cl)c3cc(C)ccc3oc2=O)nn(-c2cccc(C)c2)c1C(=O)OCC

absorption maximum (in O): 438 nm
SMILES: CC[n+]1c(-c2ccccc2)c2cc(NC(=O)NCC[NH3+])ccc2c2ccc(NC(=O)NCC[NH3+])cc21

absorption maximum (in ClCCl): 336 nm
SMILES: FC(F)(F)c1ccc(C2=Cc3ccccc3[Si]2(c2ccccc2)c2ccccc2)cc1

absorption maximum (in CC#N): 696 nm | absorption maximum (in CCO): 688 nm | absorption maximum (in CO): 690 nm | absorption maximum (in ClC(Cl)Cl): 702 nm
SMILES: CCNc1cc2c(cc1C)C(c1ccccc1C(=O)O)=C1CCCC(/C=C/C3=[N+](C)c4ccccc4C3(C)C)=C1O2

absorption maximum (in ClC(Cl)Cl): 335 nm
SMILES: N#Cc1c(C#N)c2cc(F)ccc2c2ccc(F)cc12
